Data taken from ChEMBL document CHEMBL1201862, “PubChem BioAssay data set” (2004).
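Assay format: 96-well plates, 48-hour exposure. Here, GI50 denotes the concentration required for 50% inhibition of growth.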 The source made the active and inactive calls. Cut-off read from the data, not from the text of the source: active = GI50 up to about 1.1 µM and inactive = higher.

How the values were obtained:
Assay in all cases: DTP human tumour cell line panel, 48 h
BT-549 = system: BT-549
CCRF-CEM = system: CCRF-CEM
HCT-116 = system: HCT-116
HCT-15 = system: HCT-15
HL-60 = system: HL-60
K562 = system: K562
KM12 = system: KM12
M14 = system: M14
MDA-MB-231 = system: MDA-MB-231
MDA-MB-435 = system: MDA-MB-435
MDA-N = system: MDA-N
NCI-H460 = system: NCI-H460
NCI-H522 = system: NCI-H522
OVCAR-5 = system: OVCAR-5
OVCAR-8 = system: OVCAR-8
SK-MEL-28 = system: SK-MEL-28
SN12C = system: SN12C
SNB-19 = system: SNB-19
SW-620 = system: SW-620
HCC 2998 = system: HCC 2998

Row | SMILES | GI50 (BT-549) | GI50 (CCRF-CEM) | GI50 (HCT-116) | GI50 (HCT-15) [µM] | GI50 (HL-60) | GI50 (K562) | GI50 (KM12) | GI50 (M14) | GI50 (MDA-MB-231) | GI50 (MDA-MB-435) | GI50 (MDA-N) | GI50 (NCI-H460) | GI50 (NCI-H522) | GI50 (OVCAR-5) | GI50 (OVCAR-8) | GI50 (SK-MEL-28) | GI50 (SN12C) | GI50 (SNB-19) | GI50 (SW-620) | GI50 (HCC 2998)
1 | O=C(O)CN(CC(=O)O)c1ccccc1 | > 100 µM (inactive) | 34 µM (inactive) | 56.5 µM (inactive) | > 100 | 44.5 µM (inactive) | 35 µM (inactive) | 60.1 µM (inactive) | > 100 µM (inactive) | 92.3 µM (inactive) | 70.6 µM (inactive) | 97.5 µM (inactive) | 71.1 µM (inactive) | 26.9 µM (inactive) | > 100 µM (inactive) | > 100 µM (inactive) | > 100 µM (inactive) | > 100 µM (inactive) | > 100 µM (inactive) | > 100 µM (inactive) | –
2 | NC1=C(Cl)C(=O)c2ccccc2C1=O | 2.47 µM (inactive) | 5.15 µM (inactive) | 3.77 µM (inactive) | 3.46 | 3.55 µM (inactive) | 8.11 µM (inactive) | 8.05 µM (inactive) | 0.893 µM (active) | – | 0.8 µM (active) | 1.63 µM (inactive) | 3.43 µM (inactive) | 5.22 µM (inactive) | 10.3 µM (inactive) | 8.34 µM (inactive) | 4.67 µM (inactive) | 5.04 µM (inactive) | 9.46 µM (inactive) | 5.42 µM (inactive) | 10.6 µM (inactive)
3 | Oc1c(Cl)cc2cc1-c1cc(cc(Cl)c1O)CCc1c(cc(Cl)c(O)c1Cl)-c1cc(Cl)c(c(Cl)c1O)/C=C\2 | 16 µM (inactive) | 3.56 µM (inactive) | 8.11 µM (inactive) | 7.96 | 5.61 µM (inactive) | > 50 µM (inactive) | 7.76 µM (inactive) | 7.23 µM (inactive) | – | 8.02 µM (inactive) | – | 4.42 µM (inactive) | – | 10.8 µM (inactive) | 7.91 µM (inactive) | 7.08 µM (inactive) | – | 11.6 µM (inactive) | 9.44 µM (inactive) | 6.98 µM (inactive)
4 | COc1ccc(COCCOCc2nc(C#N)c(N)o2)cc1 | > 100 µM (inactive) | 29 µM (inactive) | > 100 µM (inactive) | > 100 | > 100 µM (inactive) | > 100 µM (inactive) | > 100 µM (inactive) | > 100 µM (inactive) | > 100 µM (inactive) | > 100 µM (inactive) | – | > 100 µM (inactive) | 6.79 µM (inactive) | > 100 µM (inactive) | > 100 µM (inactive) | > 100 µM (inactive) | > 100 µM (inactive) | – | > 100 µM (inactive) | > 100 µM (inactive)
5 | COc1cc2c(cc1OCCCC(=O)Nc1cc(C(=O)NCCCN(C)C)n(C)n1)N=CC1CCCN1C2=O (configuration not stated) | 9.75 µM (inactive) | – | 12.9 µM (inactive) | 8.55 | – | 0.123 µM (active) | > 100 µM (inactive) | 8.34 µM (inactive) | 19.7 µM (inactive) | 40.9 µM (inactive) | 23.3 µM (inactive) | 9.89 µM (inactive) | 5.37 µM (inactive) | 10.5 µM (inactive) | – | 5.46 µM (inactive) | 7.11 µM (inactive) | 10 µM (inactive) | 8.63 µM (inactive) | 11.1 µM (inactive)
6 | CC1(C)C(=O)C2(OS(=O)(=O)C(F)(F)F)CCC1C2 (configuration not stated) | > 100 µM (inactive) | > 100 µM (inactive) | > 100 µM (inactive) | > 100 | > 100 µM (inactive) | > 100 µM (inactive) | > 100 µM (inactive) | > 100 µM (inactive) | > 100 µM (inactive) | > 100 µM (inactive) | > 100 µM (inactive) | > 100 µM (inactive) | – | > 100 µM (inactive) | > 100 µM (inactive) | > 100 µM (inactive) | > 100 µM (inactive) | > 100 µM (inactive) | > 100 µM (inactive) | > 100 µM (inactive)
7 | COC(=O)C1=C(C)C=C(N2CCOCC2)C(C(=O)OC)C1c1ccccc1 (configuration not stated) | > 10 µM (inactive) | > 10 µM (inactive) | > 10 µM (inactive) | > 10 | – | > 10 µM (inactive) | > 10 µM (inactive) | > 10 µM (inactive) | > 10 µM (inactive) | > 10 µM (inactive) | > 10 µM (inactive) | > 10 µM (inactive) | > 10 µM (inactive) | > 10 µM (inactive) | > 10 µM (inactive) | > 10 µM (inactive) | > 10 µM (inactive) | > 10 µM (inactive) | > 10 µM (inactive) | > 10 µM (inactive)
8 | COc1ccc(Cc2n[nH]c(Nc3ccc(Br)cc3)nc2=O)cc1OC | 27 µM (inactive) | 59.2 µM (inactive) | 64.3 µM (inactive) | > 100 | 57 µM (inactive) | 44.9 µM (inactive) | 36.6 µM (inactive) | > 89.7 µM (inactive) | 50.1 µM (inactive) | 14.2 µM (inactive) | – | > 100 µM (inactive) | 57.7 µM (inactive) | > 100 µM (inactive) | > 100 µM (inactive) | > 89.9 µM (inactive) | > 100 µM (inactive) | > 100 µM (inactive) | > 100 µM (inactive) | > 88.1 µM (inactive)
9 | COC(CO[Si](C)(C)N[Si](C)(C)OCC(OC)c1ccccc1)c1ccccc1 (configuration not stated) | > 100 µM (inactive) | > 100 µM (inactive) | > 100 µM (inactive) | > 100 | > 100 µM (inactive) | > 100 µM (inactive) | > 100 µM (inactive) | > 100 µM (inactive) | – | > 100 µM (inactive) | > 100 µM (inactive) | > 100 µM (inactive) | – | > 100 µM (inactive) | > 100 µM (inactive) | > 100 µM (inactive) | > 100 µM (inactive) | > 100 µM (inactive) | > 100 µM (inactive) | > 100 µM (inactive)
10 | CCOP(=O)(OCC)/C(=C\n1c(=S)[nH]c2cc(C)ccc21)C(=O)OC | > 100 µM (inactive) | – | > 100 µM (inactive) | > 100 | 42.6 µM (inactive) | – | > 100 µM (inactive) | > 100 µM (inactive) | > 100 µM (inactive) | > 100 µM (inactive) | > 100 µM (inactive) | > 100 µM (inactive) | – | > 100 µM (inactive) | > 100 µM (inactive) | > 100 µM (inactive) | > 100 µM (inactive) | > 100 µM (inactive) | > 100 µM (inactive) | > 100 µM (inactive)
11 | ONCCCn1cnc2c(NC3CC3)ncnc21 | > 100 µM (inactive) | > 100 µM (inactive) | > 100 µM (inactive) | > 100 | – | > 100 µM (inactive) | > 100 µM (inactive) | > 100 µM (inactive) | > 100 µM (inactive) | > 100 µM (inactive) | > 100 µM (inactive) | > 100 µM (inactive) | > 100 µM (inactive) | > 100 µM (inactive) | > 100 µM (inactive) | > 100 µM (inactive) | > 100 µM (inactive) | > 100 µM (inactive) | > 100 µM (inactive) | > 100 µM (inactive)
12 | CC1(C)OCC(C2OC(OC(=O)c3ccc([N+](=O)[O-])cc3)C3OC(C)(C)OC23)O1 (configuration not stated) | > 100 µM (inactive) | > 100 µM (inactive) | > 100 µM (inactive) | > 100 | – | > 100 µM (inactive) | > 100 µM (inactive) | > 100 µM (inactive) | > 100 µM (inactive) | > 100 µM (inactive) | > 100 µM (inactive) | > 100 µM (inactive) | 75.5 µM (inactive) | > 100 µM (inactive) | > 100 µM (inactive) | > 100 µM (inactive) | > 100 µM (inactive) | 59 µM (inactive) | > 100 µM (inactive) | > 100 µM (inactive)
13 | CCCCCCCCCCCCCCCCCCNc1ccn(C2OC(COP(=O)(O)OC3CC(n4cc(F)c(=O)[nH]c4=O)OC3COP(=O)(O)OCC3OC(n4ccc(N)nc4=O)C(O)C3O)C(O)C2O)c(=O)n1 (configuration not stated) | 15.1 µM (inactive) | 0.0206 µM (active) | 1.03 µM (active) | 12.2 | 0.26 µM (active) | 16.6 µM (inactive) | 14.4 µM (inactive) | 0.453 µM (active) | 26.2 µM (inactive) | 8.18 µM (inactive) | – | < 0.0129 µM (active) | 13 µM (inactive) | 36.5 µM (inactive) | 3.1 µM (inactive) | 24.7 µM (inactive) | 15.8 µM (inactive) | 9.2 µM (inactive) | 16.2 µM (inactive) | 2.35 µM (inactive)
14 | c1ccc([P+](CCSCCSCC[P+](c2ccccc2)(c2ccccc2)c2ccccc2)(c2ccccc2)c2ccccc2)cc1 | > 100 µM (inactive) | – | > 100 µM (inactive) | > 100 | > 100 µM (inactive) | 53.5 µM (inactive) | > 100 µM (inactive) | > 100 µM (inactive) | > 100 µM (inactive) | > 100 µM (inactive) | > 100 µM (inactive) | > 100 µM (inactive) | – | > 100 µM (inactive) | > 100 µM (inactive) | > 100 µM (inactive) | > 100 µM (inactive) | > 100 µM (inactive) | > 100 µM (inactive) | > 100 µM (inactive)
15 | O=c1c(O)c(-c2cc(O)c(O)c(O)c2)oc2cc(O)cc(O)c12 [MYRICETIN] | 32.6 µM (inactive) | 64.6 µM (inactive) | – | 24.8 | 56.6 µM (inactive) | 35.6 µM (inactive) | 17.7 µM (inactive) | 32.1 µM (inactive) | 18.1 µM (inactive) | 17.7 µM (inactive) | 10 µM (inactive) | 20.4 µM (inactive) | 68.1 µM (inactive) | 84.1 µM (inactive) | 17.9 µM (inactive) | > 100 µM (inactive) | – | – | 19.5 µM (inactive) | –
